# According to PMC10377091 (Brain Sciences, 2023):
# Where two headings read alike, the source gives them in different places.
# What was measured:
# hiPS-BCECs = test: Cytotoxicity, CellTiter-Glo 2.0 Cell Viability Assay; details: 1% SDS (positive control), 4 h incubation, luminescence; mean ± SEM
# Protocol: Cytotoxicity of phoenixin-14 against hiPS-BCECs was evaluated for three concentrations (1, 10, and 100 nMol) after 4 h incubation with untreated (negative control) and 1% Sodium Dodecyl Sulfate (SDS, Carl Roth, Karlsruhe, Germany)-treated (positive control) hiPS-BCECs as controls. After treatment, a CellTiter-Glo® 2.0 Cell Viability Assay (Promega, Mannheim, Germany) was performed according to the manufacturer’s instructions. Luminescence was measured with an Infinite M200 fluorescence reader (Tecan Group, Männedorf, Switzerland).
# Cytotoxicity studies were performed in triplicate and three independent biological replicates. Transport studies were performed in duplicate and repeated three times. […] When feasible based on the number of values, data were tested for normality using the Kolmogorov–Smirnov test; otherwise, they were assumed to be non-normally distributed. Results from the toxicity studies were analyzed using Kruskal–Wallis test and significance values were adjusted according to Bonferroni correction regarding multiple testing. To compare the results of the transport studies, an unpaired t-test was applied. Data are presented as mean ± SEM. The level of significance was defined as p < 0.05 (*).
# [1] = set-up: method as in PMID 34575559; details: in vivo in mice; cited from earlier work
# [2] = system: hiPSC-BCECs (brain capillary-like endothelial cells derived from human induced-pluripotent stem cells); set-up: method as in PMID 28344002; details: control substances, previously published experiments in the hiPSC-based BBB model; mean ± SEM; cited from earlier work
# [3] = system: hiPSC-BCECs (brain capillary-like endothelial cells derived from human induced-pluripotent stem cells); test: Transport assay across hiPSC-derived BBB mono-culture model (hiPS-BCEC); type: in vitro ADME; details: for clearance value: mean ± SEM; for permeability coefficient (PC): apical to basolateral, 4 h, 37 °C, ELISA
# Protocol: Human induced-pluripotent stem cells (hiPSC; IMR90-4, WiCell Research Institute, Madison, WI, USA) were cultured in mTeSRTM1 medium (StemCell Technologies, Vancouver, BC, Canada). The hiPSC-derived brain capillary-like endothelial cell (hiPS-BCEC) BBB model was built as previously described. In brief, using Accutase® solution (Sigma-Aldrich, Saint Louis, MO, USA), hiPSCs were dissociated into single cells and seeded in mTeSRTM1 medium (StemCell Technologies Inc.) including […]-27632 dihydrochloride (Tocris, Bristol, UK) on Matrigel® Growth Factor Reduced (GFR) Basement Membrane Matrix, Phenol Red-free (Corning, Corning, NY, USA) coated 6-well plates at a density of 7.5 × 103 hiPSC/cm^2. […] For the next two days, cells were treated with EC++ medium, consisting of human endothelial-[…], Thermo Fisher Scientific) supplemented with 200 × diluted serum-free B-27TM supplement (Thermo Fisher Scientific), 20 ng/mL hbFGF (PeproTech, Cranbury, NJ, USA), and 10 μM all-trans RA (Sigma-Aldrich). No medium change occurred on day 7. Using Accutase®, cells were seeded in EC++ medium at a density of 1 × 106 hiPSC/cm^2 onto 24-well ThinCert® cell culture inserts, with a pore size of 0.4 μm (Greiner BioOne, Frickenhausen, Germany), coated with 400 μg/mL collagen IV (Sigma-Aldrich) and supplemented with 100 μg/mL fibronectin (Thermo Fisher Scientific). Cells were cultured in EC++ medium for 24 h, followed by treatment with EC medium ([…] hbFGF and RA) for another 24 h, yielding purified hiPS-BCECs. Transport assays were performed in cell culture inserts (24-well format) on an orbital shaker (Edmund Buhler GmbH, Bodelshausen, Germany) at 100 rpm, 37 °C, 95% humidity, and 5% CO2. […] Stock solutions of commercially purchased phoenixin-14 (079-01, Phoenix Pharmaceuticals, Inc., Karlsruhe, Germany,) were diluted with EC medium to the desired concentrations (1 nMol or 10 nMol). In total, 200 μL of the final concentrations of phoenixin-14 were applied to the apical side of the BBB model. The basolateral side was supplied with 800 μL of EC medium. The transport was evaluated with a total incubation time of 4 h. Half-hourly, the basolateral medium was collected and replaced with fresh EC medium. As a control, the substances were incubated on empty collagen IV-/fibronectin-coated inserts to exclude major phoenixin-14 adsorption on the membrane. […] The concentration of phoenixin-14 in the apical and basolateral compartment was measured using a commercially purchased ELISA Kit (EK-079-01, Phoenix Pharmaceuticals). The intra-assay variability was 9.7%. The sensitivity for phoenixin was 0.07 ng/mL, while the linear detection ranged from 0.36 to 3.26 ng/mL (Phoenix Pharmaceuticals). […] Data are presented as mean ± SEM.
molecule,measurement,setting,value
"CCCCCCCCCCCCOS(=O)(=O)[O-].[Na+] [SDS, Sodium Dodecyl Sulfate]",cell viability in comparison to untreated hiPS-BCECs,hiPS-BCECs,0.37 ± 0.02%
Cn1c(=O)c2c(ncn2C)n(C)c1=O [caffeine],clearance value,[1],1.111e-05 mL/min
same,permeability coefficient (PC),[2],51.06 ± 9.90 µm/min
H-DVQPPGLKVWSDPF-NH2 [phoenixin-14],passage across the hiPSC-derived BBB model,"[3]; 1 and 10 nMol, phoenixin-14 alone, in vitro",did not cross
same,clearance value,"[3]; 1 nMol phoenixin-14, hiPS-BCEC mono-culture, resulting from PC",6.83e-07 ± 1.39e-07 mL/min
same,permeability coefficient (PC),"[3]; 10 nMol phoenixin-14, hiPS-BCEC mono-culture, experiment 1 of 3",0.059 µm/min
same,permeability coefficient (PC),"[3]; 10 nMol phoenixin-14, hiPS-BCEC mono-culture, experiment 2 of 3",0.056 µm/min
same,permeability coefficient (PC),"[3]; 10 nMol phoenixin-14, hiPS-BCEC mono-culture, experiment 3 of 3",0.019 µm/min
same,clearance value,"[3]; 10 nMol phoenixin-14, hiPS-BCEC mono-culture, based on PC",1.779e-06 ± 8.17e-07 mL/min
